From patent US7915291B2, “Hepatitis C virus inhibitors” (Bristol-Myers Squibb Company, priority 2002, dated 2011)

target: HCV NS3/4A protease complex, BMS strain (UniProt P27958, C1454S/C1711G, species not given/STRAIN_BMS); test: Recombinant HCV NS3/4A protease complex FRET peptide assay (BMS strain); assay type: biochemical, HCV genotype 1a; settings: NS3/4A BMS strain; read-out: IC50 range
From the text: Recombinant HCV NS3/4A Protease Complex FRET Peptide Assay
The purpose of this in vitro assay was to measure the inhibition of HCV NS3 protease complexes, derived from the BMS, H77C or J416S strains, as described below, by compounds of the present invention.
Serum from an HCV-infected patient was obtained from Dr. T. Wright, San Francisco Hospital. An engineered full-length cDNA (compliment deoxyribonucleic acid) template of the HCV genome (BMS strain) was constructed from DNA fragments obtained by reverse transcription-PCR(RT-PCR) of serum RNA (ribonucleic acid) and using primers selected on the basis of homology between other genotype 1a strains.
The BMS, H77C and J4L6S strains were used for production of recombinant NS3/4A protease complexes. […] Briefly, a three-lysine solubilizing tail was added at the 3′-end of the NS4A coding region. […] Briefly, NS3/4A expression was induced with 0.5 mM Isopropyl β-D-1-thiogalactopyranoside (IPTG) for 22 hr at 20° C. […] The crude protein extract was loaded on a Nickel—Nitrilotriacetic acid (Ni-NTA) column pre-equilibrated with buffer B (25 mM HEPES, pH8.0, 20% glycerol, 500 mM NaCl, 0.5% Triton-X100, 15 mM imidazole, 5 mM βME). The sample was loaded at a flow rate of 1 mL/min. The column was washed with 15 column volumes of buffer C (same as buffer B except with 0.2% Triton-X100). The protein was eluted with 5 column volumes of buffer D (same as buffer C except with 200 mM Imidazole).
NS3/4A protease complex-containing fractions were pooled and loaded on a desalting column Superdex-S200 pre-equilibrated with buffer D (25 mM HEPES, pH7.5, 20% glycerol, 300 mM NaCl, 0.2% Triton-X100, 10 mM βME). Sample was loaded at a flow rate of 1 mL/min. NS3/4A protease complex-containing fractions were pooled and concentrated to approximately 0.5 mg/ml.
The enzyme was stored at −80° C., thawed on ice and diluted prior to use in assay buffer. […] The sequence of this peptide is loosely based on the NS4A/NS4B natural cleavage site except there is an ester linkage rather than an amide bond at the cleavage site. The peptide substrate was incubated with one of the three recombinant NS3/4A complexes, in the absence or presence of a compound of the present invention, and the formation of fluorescent reaction product was followed in real time using a Cytofluor Series 4000.
The reagents were as follow: HEPES and Glycerol (Ultrapure) were obtained from GIBCO-BRL. Dimethyl Sulfoxide (DMSO) was obtained from Sigma. β-Mercaptoethanol was obtained from Bio Rad.
Substrate: 2 μM final concentration (from a 2 mM stock solution in DMSO stored at −20° C.). HCV NS3/4A type 1a (1b), 2-3 nM final concentration (from a 5 μM stock solution in 25 mM HEPES, pH7.5, 20% glycerol, 300 mM NaCl, 0.2% Triton-X100, 10 mM βME).
The assay was performed in a 96-well polystyrene black plate from Falcon. Each well contained 25 μl NS3/4A protease complex in assay buffer, 50 μof a compound of the present invention in 10% DMSO/assay buffer and 25 μl substrate in assay buffer. A control (no compound) was also prepared on the same assay plate. The enzyme complex was mixed with compound or control solution for 1 min before initiating the enzymatic reaction by the addition of substrate. The assay plate was read immediately using the Cytofluor Series 4000 (Perspective Biosystems). The instrument was set to read an […] at 25° C. Reactions were generally followed for approximately 15 minutes.
The percent inhibition was calculated with the following equation: 100−[(δFinh/δFcon)×100] where δF is the change in fluorescence over the linear range of the curve.

SMILES | IC50
C=C[C@@H]1C[C@]1(NC(=O)C1C[C@@H](Oc2nc(C3CC3)nc3cc(OC)c(OC)cc23)CN1C(=O)[C@@H](N)C(C)(C)C)C(=O)NS(=O)(=O)C1CC1 (stereo partly shown) [Compound 49] | 1000 to 10000 nM
C=C[C@@H]1C[C@]1(NC(=O)C1C[C@@H](Oc2nc(C(F)(F)F)nc3cc(OC)c(OC)cc23)CN1C(=O)[C@@H](N)C(C)(C)C)C(=O)NS(=O)(=O)C1CC1 (stereo partly shown) [Compound 52] | 1000 to 10000 nM
C=CC1C[C@]1(NC(=O)[C@@H]1C[C@@H](Oc2nc(-c3cnccn3)c(OC)c3ccccc23)CN1C(=O)[C@@H](NC(=O)OC(C)(C)C)C(C)(C)C)C(=O)NS(=O)(=O)C1CC1 (stereo partly drawn) [Compound 231, BOCNH-P3(L-t-BuGly)-P2[(4R)-(3-pyrazine-2-yl-4-methoxy -isoquinolin-1-oxo)-S-proline]-P1(1R,2S VinylAcca)-CONHSO2Cyclopropane] | 1000 to 10000 nM
C=CC1C[C@]1(NC(=O)[C@@H]1C[C@@H](Oc2nc(Cl)c(OC)c3ccccc23)CN1C(=O)[C@@H](NC(=O)OC(C)(C)C)C(C)(C)C)C(=O)NS(=O)(=O)C1CC1 (stereo partly drawn) [Compound 245, BOCNH-P3(L-t-BuGly)-P2[(4R)-(3-chloro-4-methoxyisoquinoline-1-oxo)-S-proline]-P1(1R,2S VinylAcca)-CONHSO2Cyclopropane] | 100 to 1000 nM
C=C[C@@H]1C[C@]1(NC(=O)[C@@H]1C[C@@H](Oc2nccc3c(O)cccc23)CN1C(=O)[C@@H](NC(=O)OC(C)(C)C)C(C)(C)C)C(=O)NS(=O)(=O)C1CC1 [Compound 256] | 10000 to 100000 nM
C=CC1C[C@]1(NC(=O)[C@@H]1C[C@@H](Oc2nc(-c3cnc(N(C)C)s3)cc3cc(OC)ccc23)CN1C(=O)[C@@H](NC(=O)OC(C)(C)C)C(C)(C)C)C(=O)NS(=O)(=O)C1CC1 (stereo partly shown) [Compound 331] | < 100 nM
C=CC1CC1(NC(=O)[C@@H]1C[C@@H](Oc2ccnc(N3CCc4ccccc4C3)n2)CN1C(=O)[C@@H](NC(=O)OC)C(C)(C)C)C(=O)NS(=O)(=O)C1CC1 (stereo partly shown) [Compound 341] | 1000 to 10000 nM
C=CC1CC1(NC(=O)[C@@H]1C[C@@H](Oc2ccnc(N3Cc4ccccc4C3)n2)CN1C(=O)[C@@H](NC(=O)OC)C(C)(C)C)C(=O)NS(=O)(=O)C1CC1 (stereo partly shown) [Compound 342] | 1000 to 10000 nM
C=CC1CC1(NC(=O)[C@@H]1C[C@@H](Oc2ccnc(N3CCOCC3)n2)CN1C(=O)[C@@H](NC(=O)OC)C(C)(C)C)C(=O)NS(=O)(=O)C1CC1 (stereo partly shown) [Compound 343] | 1000 to 10000 nM
C=CC1C[C@]1(NC(=O)[C@@H]1C[C@@H](COc2ccnc3ccccc23)CN1C(=O)[C@@H](NC(=O)OC)C(C)(C)C)C(=O)NS(=O)(=O)C1CC1 (stereo partly shown) [Compound 344] | 100 to 1000 nM
C=CC1C[C@]1(NC(=O)[C@@H]1C[C@@H](COc2cncc(Br)c2)CN1C(=O)[C@@H](NC(=O)OC)C(C)(C)C)C(=O)NS(=O)(=O)C1CC1 (stereo partly shown) [Compound 346] | 1000 to 10000 nM
C=CC1C[C@]1(NC(=O)[C@@H]1C[C@@H](COc2ccnc(Br)c2)CN1C(=O)[C@@H](NC(=O)OC)C(C)(C)C)C(=O)NS(=O)(=O)C1CC1 (stereo partly shown) [Compound 348] | 10000 to 100000 nM
C=CC1C[C@]1(NC(=O)[C@@H]1C[C@@H](COc2ccnc(-c3ccsc3)c2)CN1C(=O)[C@@H](NC(=O)OC)C(C)(C)C)C(=O)NS(=O)(=O)C1CC1 (stereo partly shown) [Compound 349] | 1000 to 10000 nM
C=CC1C[C@]1(NC(=O)[C@@H]1C[C@@H](COc2ccnc(-c3ccoc3)c2)CN1C(=O)[C@@H](NC(=O)OC)C(C)(C)C)C(=O)NS(=O)(=O)C1CC1 (stereo partly shown) [Compound 351] | 1000 to 10000 nM
C=CC1C[C@]1(NC(=O)[C@@H]1C[C@@H](COc2cccc(Br)n2)CN1C(=O)[C@@H](NC(=O)OC)C(C)(C)C)C(=O)NS(=O)(=O)C1CC1 (stereo partly shown) [Compound 352] | 10000 to 100000 nM
C=CC1C[C@]1(NC(=O)[C@@H]1C[C@@H](COc2cccc(-c3ccsc3)n2)CN1C(=O)[C@@H](NC(=O)OC)C(C)(C)C)C(=O)NS(=O)(=O)C1CC1 (stereo partly shown) [Compound 353] | 10000 to 100000 nM
C=CC1C[C@]1(NC(=O)[C@@H]1C[C@@H](COc2cccc(-c3ccccc3)n2)CN1C(=O)[C@@H](NC(=O)OC)C(C)(C)C)C(=O)NS(=O)(=O)C1CC1 (stereo partly shown) [Compound 354] | 1000 to 10000 nM
C=CC1CC1(NC(=O)[C@@H]1C[C@@H](Oc2cncc(Br)c2)CN1C(=O)[C@@H](NC(=O)OC(C)(C)C)C(C)(C)C)C(=O)NS(=O)(=O)C1CC1 (stereo partly shown) [Compound 423] | 100 to 1000 nM
C=CC1CC1(NC(=O)[C@@H]1C[C@@H](Sc2cccc3ccccc23)CN1C(=O)[C@@H](NC(=O)OC(C)(C)C)C(C)(C)C)C(=O)NS(C)(=O)=O (stereo partly shown) [Compound 451] | 1000 to 10000 nM
C=CC1CC1(NC(=O)[C@@H]1C[C@@H](Sc2ccc3ccccc3c2)CN1C(=O)[C@@H](NC(=O)OC(C)(C)C)C(C)(C)C)C(=O)NS(C)(=O)=O (stereo partly shown) [Compound 452] | 1000 to 10000 nM
C=C[C@@H]1C[C@]1(NC(=O)[C@@H]1C[C@@H](Oc2cccc3ccccc23)CN1C(=O)[C@@H](NC(=O)OC(C)(C)C)C(C)(C)C)C(=O)NS(C)(=O)=O [Compound 470] | 100 to 1000 nM
C=C[C@H]1C[C@@]1(NC(=O)[C@@H]1C[C@@H](Oc2cccc3ccccc23)CN1C(=O)[C@@H](NC(=O)OC(C)(C)C)C(C)(C)C)C(=O)NS(C)(=O)=O [Compound 471] | 1000 to 10000 nM

same assay, conditions: read-out: IC50 range; NS3/4A BMS strain

SMILES | IC50
C=CC1CC1(NC(=O)C1CC(Oc2nccc3cc(OC)ccc23)CN1C(=O)C(NC)C(C)CC)C(=O)NS(=O)(=O)C1CC1 (stereo not shown) [Compound 99] | 1000 to 10000 nM

tested on: HCV replicon in Huh7 cells; test: HCV replicon cell-based assay; set-up: species or system HCV strain 1B; settings: Hepatitis C virus, Huh-7; HCV replicon, Huh7 cells; read-out: EC50 range
From the text: HCV Replicon Cell-based Assay
This system enabled us to evaluate the effects of our HCV Protease compounds on HCV RNA replication. Briefly, using the HCV strain 1B sequence described in the Lohmann paper (Assession number:AJ238799), an HCV cDNA was generated encoding the 5′ internal ribosome entry site (IRES), the neomycin resistance gene, the EMCV (encephalomyocarditis virus)-IRES and the HCV nonstructural proteins, NS3-NS5B, and 3′ non-translated region (NTR). In vitro transcripts of the cDNA were transfected into the human hepatoma cell line, Huh7. […] Resulting cell lines were characterized for positive and negative strand RNA production and protein production over time.
Huh7 cells, constitutively expressing the HCV replicon, were grown in Dulbecco's Modified Eagle Media (DMEM) containing 10% Fetal calf serum (FCS) and 1 mg/ml G418 (Gibco-BRL). Cells were seeded the night before (1.5×10^4 cells/well) in 96-well tissue-culture sterile plates. Compound and no compound controls were prepared in DMEM containing 4% FCS, 1:100 Penicillin/Streptomysin, 1:100 L-glutamine and 5% DMSO in the dilution plate (0.5% DMSO final concentration in the assay). Compound/DMSO mixes were added to the cells and incubated for 4 days at 37° C. After 4 days, plates were rinsed thoroughly with Phosphate-Buffered Saline (PBS) (3 times 150 μl). The cells were lysed with 25 μl of a lysis assay reagent containing the FRET peptide (RET S1, as described for the in vitro enzyme assay). The lysis assay reagent was made from 5× cell Luciferase cell culture lysis reagent(Promega #E153A) diluted to 1× with distilled water, NaCl added to 150 mM final, the FRET peptide diluted to 10 μM final from a 2 mM stock in 100% DMSO. The plate was then placed into the Cytofluor 4000 instrument which had been set to 340 nm excitation/490 emission, automatic mode for 21 cycles and the plate read in a kinetic mode. EC50 determinations were carried out as described for the IC50 determinations.
Cells were lyzed using the Rneasy kit (Qiagen). […] All primers were designed with ABI Prism 7700 software and obtained from Biosearch Technologies, Novato, Calif. Samples containing known concentrations of HCV RNA transcript were run as standards. Using the following cycling protocol (50° C., 30 min; 95° C., 5 min; 40 cycles of 95° C., 15 sec, 60° C., 1 min), HCV RNA expression was quantitated as described in the Perkin Elmer manual using the ABI Prism 7700 Sequence Detector.

SMILES | EC50
C=C[C@@H]1CC1(NC(=O)[C@@H]1CC(Oc2nccc3cc(OC)ccc23)CN1C(=O)[C@@H](NC(=O)NC(C)(C)C)C(C)(C)C)C(=O)NS(=O)(=O)C1CC1 (stereo partly shown) [Compound 74] | < 100 nM
C=C[C@@H]1C[C@]1(NC(=O)[C@@H]1C[C@@H](Oc2nccc3cc(OC)ccc23)CN1C(=O)[C@@H](NC(=O)N[C@H](C(=O)OC)C(C)(C)C)C(C)(C)C)C(=O)NS(=O)(=O)C1CC1 [Compound 146] | < 100 nM
